Source: patent US10722484B2, “Methods of cancer treatment” (K-Gen, Inc., priority 2016, dated 2020)
Read-outs that look alike come from different tables or passages of the source.

Tests used:
Type in all cases: cell-based
A549 cells = assay: Soft agar colony formation assay; conditions: for number of colonies formed in soft agar: 7-10 days, 9-point 3-fold dilution series
Experimental: To prepare a base agar layer (0.6%), melted 1.2% agar solution was mixed 1:1 (v/v) with 2×DMEM/20% FBS medium in a tube by inverting several times, and 50 μL of the mixture was immediately transferred to a well in a 96-well flat-bottom microplate. The plate was placed at 4° C. for 30 minutes to allow the base agar layer to solidify. Then, the cell agar layer (agar 0.4%) was prepared by transferring 75 μL of the cell and agar mixture containing 1:1:1 (v/v/v) of 1.2% agar solution, 2×DMEM/20% FBS and cell suspension (0.4-4×10E5/mL) to each well of the plates so that each well contained 1000-10000 cells per well. The plates were placed at 4° C. for 15 minutes and then 75 μL of media was added to each well. After incubating the plates overnight in a CO2 incubator, 50 μL of media with or without 5× final concentrations of compounds were added to each well. Each compound was tested in 9-point 3-fold dilution series. The plates were incubated for 7-10 days at 37° C. At the end of incubation period, 28 μL of Calcein AM solution (5 μM) was added to the center of each well. The plates were incubated at 37° C. for 45 minutes before scanning on Acumen (TTP Labtech). Each compound was tested in triplicates. Data was analyzed and compound EC50s were calculated using GraphPad Prism 5.

H838 = assay: Proliferation assay (CellTiter Glo); conditions: H838 (RAS WT); 96 hours
H1915 = assay: Proliferation assay (CellTiter Glo); conditions: H1915 (RAS WT); 96 hours
BxPC-3 = assay: Proliferation assay (CellTiter Glo); conditions: BxPC-3 (RAS WT); 96 hours
Colo205 = assay: Proliferation assay (CellTiter Glo); conditions: Colo205 (RAS WT); 96 hours
HT29 = assay: Proliferation assay (CellTiter Glo); conditions: HT29 (RAS WT); 96 hours
SW900 = assay: Proliferation assay (CellTiter Glo); conditions: SW900 (K-RAS: G12V); 96 hours
RPMI8226 = assay: Proliferation assay (CellTiter Glo); conditions: RPM18226; 96 hours
Pan2.03 = assay: Proliferation assay (CellTiter Glo); conditions: 96 hours; for Top Inhibition %: % of top inhibition
Experimental: (§1) The dose range for most compounds was 4.6 nM-30 μM. The dose ranges for some compounds were adjusted downward to 0.46 nM-3 μM or 0.08 nM-0.5 μM or 0.03 nM-0.2 μM. […] The results are shown in Tables 3-6 for pancreatic cancer, lung cancer, colon/gastric cancer, and leukemia.

A549 = assay: Proliferation assay (CellTiter Glo); conditions: 96 hours; for Top Inhibition %: % of top inhibition; for EC50: Homo sapiens
Experimental: as §1

AsPC-1 = assay: Proliferation assay (CellTiter Glo); conditions: 96 hours; for Top Inhibition %: % of top inhibition; for EC50: Homo sapiens, ASPC1
Experimental: as §1

SW620 = assay: Proliferation assay (CellTiter Glo); conditions: 96 hours; for EC50: Homo sapiens, SW-620, SW620 (K-RAS: G12V), absolute EC50, read-out: Ab EC50; for Top Inhibition %: SW620, % of top inhibition
Experimental: as §1

Pan2.13 = assay: Proliferation assay (CellTiter Glo); conditions: 96 hours; for Top Inhibition %: % of top inhibition
Experimental: as §1

Capan-1 = assay: Proliferation assay (CellTiter Glo); conditions: 96 hours; for Top Inhibition %: % of top inhibition; for EC50: Homo sapiens
Experimental: as §1

CCRF-CEM = assay: Proliferation assay (CellTiter Glo); conditions: 96 hours; for Top Inhibition %: % of top inhibition; for EC50: Homo sapiens
Experimental: as §1

phospho-PKC (pan) = assay: Western blot analysis of PKC signaling pathway elements in A549 cells; conditions: 48 hours, K103, K102 at 0.5 μM, K101A at […]
Experimental: (§2) Cancer cells (2-8 million cells) were seeded in 10 cm dishes and grown overnight. For A549 lung cancer cell line, about 3 million cells were seeded. Cells were then treated with different drugs at concentrations described in Table 8 for a period of time up to 48 hours. Cells were lysed in 0.3-0.5 mL of RIPA buffer (Sigma) supplemented with protease inhibitors (Roche) and phosphatase inhibitors (Sigma). Lysates were assayed for protein concentration using BCA kit (Pierce). Normalized amount of lysates (20-30 μg protein/lane) were run on 4-12% NuPage gel (Life Technologies) and the proteins were transferred to the PVDF or nitrocellulose membrane using iBlot® Transfer Stack (Life Technologies). The membranes were probed with primary antibodies shown in Table 9 at 4° C. overnight after blocking with 1×TBST containing 5% non-fat milk. Antibodies from other vendors could also be used in Western blot analysis. After washing 5 times with 1×TBS containing 0.1% Tween20, the membranes were probed with 2nd antibodies Anti-mouse IgG Dylight 800 conjugate or Anti-rabbit IgG DyLight 680 conjugate (1:10000; Cell signaling or similar IR 2nd antibodies from different vendors) at room temperature for one hour. After washing 5 times, the membranes were scanned using Odyssey® Imaging System (Licor Biosciences).

[1] = system: leukemia inhibitory factor (LIF); assay: as above; conditions: Western blot, concentrations of Table 8 (K101A 0.1, 0.5, […]; K101E […]; K102 0.1, 0.5 μM; K103 0.01 μM; Ref1 1 μM; Ref2 0.01 μM)
Experimental: as §2

[2] = Pan2.03 (K-RAS: G12D), absolute EC50, read-out: Ab EC50
[3] = Pan2.03, relative EC50, read-out: Re EC50
[4] = A549 (K-RAS: G12S), absolute EC50, read-out: Ab EC50
[5] = AsPC-1 (K-RAS: G12D), absolute EC50, read-out: Ab EC50
[6] = AsPC-1, relative EC50, read-out: Re EC50
[7] = Pan2.13 (K-RAS: Q61H), absolute EC50, read-out: Ab EC50
[8] = Pan2.13, relative EC50, read-out: Re EC50
[9] = Capan-1 (K-RAS: G12V), absolute EC50, read-out: Ab EC50
[10] = CCRF-CEM (K-RAS: G12D), absolute EC50, read-out: Ab EC50
[11] = CCRF-CEM, relative EC50, read-out: Re EC50

Row | Structure (SMILES) | number of colonies formed in soft agar (A549 cells) | Top Inhibition % (H838) [%] | Top Inhibition % (H1915) [%] | Top Inhibition % (BxPC-3) [%] | Top Inhibition % (Colo205) [%] | Top Inhibition % (HT29) [%] | Top Inhibition % (SW900) [%] | Top Inhibition % (RPMI8226) [%] | EC50 (Pan2.03; [2]) [nM] | Top Inhibition % (Pan2.03; Pan2.03) [%] | EC50 (Pan2.03; [3]) [nM] | Top Inhibition % (A549; A549) [%] | EC50 (A549; [4]) [nM] | Top Inhibition % (AsPC-1; AsPC-1) [%] | EC50 (AsPC-1; [5]) [nM] | EC50 (AsPC-1; [6]) [nM] | EC50 (SW620) [nM] | Top Inhibition % (SW620) [%] | EC50 (Pan2.13; [7]) [nM] | Top Inhibition % (Pan2.13; Pan2.13) [%] | also measured
1 | CCCCCCCCCCCCCC(=O)O[C@@H]1[C@@H](C)[C@@]2(O)[C@@H](C=C(CO)C[C@]3(O)C(=O)C(C)=C[C@@H]23)[C@@H]2C(C)(C)[C@]12OC(C)=O [Compound K103, 12-O-Tetradecanoylphorbol-13-acetate] | reduced the number of colonies formed by A549 cells in a dose-dependent manner | 15.5 | 27.9 | 44.46 | 86.8 | 20.9 | 18.7 | 32.75 | > 500 | 32.2 | 0.9 | 80.6 | < 4.6 | 32.7 | > 500 | 1.3 | > 10000 | 1.2 | > 500 | 41.9 | rank of potency in soft agar assay (A549 cells; order K103, K102, K101A, K101E): Most potent; EC50 (Pan2.13; [8]): 0.66 nM; Top Inhibition % (Capan-1; Capan-1): 51.0%; EC50 (Capan-1; [9]): 14 nM; Top Inhibition % (CCRF-CEM; CCRF-CEM): 37.7%; EC50 (CCRF-CEM; [10]): > 500 nM; EC50 (CCRF-CEM; [11]): 0.24 nM; phospho-PKC (pan) levels (phospho-PKC (pan)): reduction; protein levels of the leukemia inhibitory factor (LIF) [1]: did not affect
2 | C/C=C(/C)C(=O)O[C@H]1C(C)=C[C@]23C(=O)[C@@H](C=C(CO)[C@@H](O)[C@]12O)[C@H]1[C@@H](C[C@H]3C)C1(C)C [Compound K102, ingenol-3-angelate] | reduced the number of colonies formed by A549 cells in a dose-dependent manner | 25.5 | 30.8 | 44.13 | 86.0 | 17.3 | 20.1 | 27.06 | > 3000 | 36.9 | 3.3 | 80.8 | 17 | 37.8 | > 3000 | 14 | > 30000 | 0.0 | 3.9 | 51.7 | EC50 (A549; A549, relative EC50, read-out: Re EC50): 17 nM; EC50 (Pan2.13; [8]): 1.2 nM; Top Inhibition % (Capan-1; Capan-1): 46.9%; EC50 (Capan-1; [9]): > 30000 nM; EC50 (Capan-1; Capan-1, relative EC50, read-out: Re EC50): 13 nM; Top Inhibition % (CCRF-CEM; CCRF-CEM): 30.3%; EC50 (CCRF-CEM; [10]): > 3000 nM; EC50 (CCRF-CEM; [11]): 0.9 nM; phospho-PKC (pan) levels (phospho-PKC (pan)): reduction; protein levels of the leukemia inhibitory factor (LIF) [1]: did not affect
